Source: PubChem BioAssay (NCI)
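Five compound concentrations were applied to cells in 96-well plates for 48 hours; endpoints were derived by simple linear interpolation of the resulting dose-response curve. Abbreviation: GI50, concentration required for 50% inhibition of growth. Definition used: TGI = concentration required for complete inhibition of growth.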

What was measured:
Assay in all cases: NCI-60 cell line screen, 48 h
MDA-MB-231 breast = test system: MDA-MB-231 breast
MCF7 breast = test system: MCF7 breast
MDA-MB-435 = test system: MDA-MB-435

CC(C)OC(=O)c1ccc2[nH]c(O)c(C(=Nc3ccc(N(C)C(=O)CN4CCN(C)CC4)cc3)c3ccccc3)c2c1
GI50 (MDA-MB-231 breast): 0.16 µM
TGI (MDA-MB-231 breast): 0.715 µM
GI50 (MCF7 breast): 0.485 µM
TGI (MCF7 breast): 2.07 µM
GI50 (MDA-MB-435): 1.07 µM
TGI (MDA-MB-435): 2.3 µM

CCOC(=O)N1CCN(S(=O)(=O)c2oc(-c3ccc(Cl)cc3)nc2C#N)CC1
GI50 (MDA-MB-231 breast): 1.94 µM
TGI (MDA-MB-231 breast): 4.24 µM
GI50 (MCF7 breast): 1.75 µM
TGI (MCF7 breast): 4.21 µM
GI50 (MDA-MB-435): 2.32 µM
TGI (MDA-MB-435): 5.24 µM

COc1ccc(/C=C2\CCCC3=C2NC(C)=NC3c2ccc(OC)c(OC)c2)cc1OC (stereo not drawn)
GI50 (MDA-MB-231 breast): 12.9 µM
TGI (MDA-MB-231 breast): 75.3 µM
GI50 (MCF7 breast): 2.44 µM
TGI (MCF7 breast): > 100 µM
GI50 (MDA-MB-435): 1.05 µM
TGI (MDA-MB-435): > 100 µM

C/C1=C\CC[C@@](C)(O)[C@@H]2CC3[C@@H](OC(=O)C34CC4)[C@@H](O2)[C@H](C)CCC1 (stereo partly drawn)
GI50 (MDA-MB-231 breast): 19.6 µM
TGI (MDA-MB-231 breast): 43.5 µM
GI50 (MCF7 breast): 0.238 µM
TGI (MCF7 breast): 25.3 µM
GI50 (MDA-MB-435): 20.3 µM
TGI (MDA-MB-435): 44.2 µM

CCCCC[C@H]1C/C=C2/C(=O)C(Cl)=C[C@@H]2C/C=C\CCCC(=O)O[C@@H](CCCCC)C/C=C2/C(=O)C(Cl)=C[C@@H]2C/C=C\CCCC(=O)O1
GI50 (MDA-MB-231 breast): 0.372 µM
TGI (MDA-MB-231 breast): 0.995 µM
GI50 (MCF7 breast): 0.155 µM
TGI (MCF7 breast): 1.93 µM
GI50 (MDA-MB-435): 0.344 µM
TGI (MDA-MB-435): 0.793 µM

CCc1c[nH]c2ncnc(N3CC[C@@](N)(CNC(=O)c4ccc(F)cc4F)C3)c12
GI50 (MDA-MB-231 breast): 35.6 µM
TGI (MDA-MB-231 breast): > 100 µM
GI50 (MCF7 breast): 26.6 µM
TGI (MCF7 breast): > 100 µM
GI50 (MDA-MB-435): 33.5 µM
TGI (MDA-MB-435): > 100 µM

Cc1cn2c(/C=N/N/C(N)=N\N)c(-c3ccc(Cl)c([N+](=O)[O-])c3)nc2s1
GI50 (MDA-MB-231 breast): 0.791 µM
TGI (MDA-MB-231 breast): 1.87 µM
GI50 (MCF7 breast): 1.56 µM
TGI (MCF7 breast): > 50 µM
GI50 (MDA-MB-435): 1.05 µM
TGI (MDA-MB-435): 2.22 µM

COc1ccc2c(c1)nc(N)c1c3cccnc3cn21
GI50 (MDA-MB-231 breast): 0.556 µM
TGI (MDA-MB-231 breast): 22.4 µM
GI50 (MCF7 breast): 0.302 µM
TGI (MCF7 breast): 17.5 µM

C=C[C@]1(C)C=C2C(=O)[C@@]3(O)OC[C@@]4(CCCC(C)(C)C43O)C2(O)C(O)C1 (stereo partly drawn)
GI50 (MDA-MB-231 breast): 13.3 µM
TGI (MDA-MB-231 breast): 27.3 µM
GI50 (MCF7 breast): 3.39 µM
TGI (MCF7 breast): 15.3 µM
GI50 (MDA-MB-435): 3.95 µM
TGI (MDA-MB-435): 14.9 µM

Nc1nc(Nc2cccc(F)c2)nc2ccccc12
GI50 (MDA-MB-231 breast): 13.8 µM
TGI (MDA-MB-231 breast): 34.2 µM
GI50 (MCF7 breast): 15.6 µM
TGI (MCF7 breast): > 100 µM
GI50 (MDA-MB-435): 16.8 µM
TGI (MDA-MB-435): 36.6 µM

CCOC(=O)c1c(C)n(Cc2ccc(Cl)cc2Cl)c2c1cc1oc(=O)c(=O)n3c(Cc4ccccc4)nc2c13
GI50 (MDA-MB-231 breast): 2.77 µM
TGI (MDA-MB-231 breast): 7.23 µM
GI50 (MCF7 breast): 2.52 µM
TGI (MCF7 breast): 8.07 µM
GI50 (MDA-MB-435): 4.55 µM
TGI (MDA-MB-435): 16.9 µM

CS(=O)(=O)Nc1cc(-c2ccc3ncnc(Nc4ccc5c(cnn5Cc5ccc(F)cc5)c4)c3c2)cnc1Cl
GI50 (MCF7 breast): 0.404 µM
TGI (MCF7 breast): 10.2 µM
GI50 (MDA-MB-435): 1.1 µM
TGI (MDA-MB-435): 3.67 µM
